# From patent publication US11453697B1, “Cyclic di-nucleotide compounds as sting agonists” (Merck Sharp & Dohme Corp., priority 2015, dated 2022)
# Read-outs that look alike come from different tables or passages of the source.
# Columns and labels:
# [1] = test system: IFN-β secretion in THP1 cells; experiment: IFN-β secretion in THP1 cell culture (5 h); format: cell-based, human
# Method in brief: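 THP1 cells incubated with compound for 5 h at 37 °C, 5% CO2, and secreted IFN-β in supernatant quantified by AlphaLISA. Percent effect normalised to 30 uM cGAMP positive control and 0.3% DMSO. EC50 from 4-parameter fit.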
# full-length HAQ STING = full-length HAQ STING (Homo sapiens (Human), UniProt Q86WV6, G230A/H232R/R293Q/R71H); experiment: 3H-cGAMP filtration binding assay (HAQ STING); conditions: competition with tritiated cGAMP, HAQ STING membrane
# Sequence of full-length HAQ STING (Q86WV6 other isoform, or with tags, fused parts or gaps, stated change not applied): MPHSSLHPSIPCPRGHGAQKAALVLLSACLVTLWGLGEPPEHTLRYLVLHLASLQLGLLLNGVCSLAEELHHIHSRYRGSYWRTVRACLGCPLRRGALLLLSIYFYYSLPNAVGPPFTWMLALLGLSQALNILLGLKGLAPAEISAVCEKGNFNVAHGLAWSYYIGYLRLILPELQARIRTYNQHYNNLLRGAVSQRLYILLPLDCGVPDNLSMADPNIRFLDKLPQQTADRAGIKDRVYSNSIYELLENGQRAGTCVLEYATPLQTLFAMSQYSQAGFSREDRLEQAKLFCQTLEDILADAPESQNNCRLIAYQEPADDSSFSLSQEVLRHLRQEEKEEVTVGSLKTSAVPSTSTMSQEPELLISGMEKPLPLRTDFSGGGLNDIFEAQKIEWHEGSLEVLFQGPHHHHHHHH
# Method in brief: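 Competition binding of compounds against 8 nM [3H]cGAMP working stock on Hi-Five cell membranes overexpressing full-length HAQ STING; compound and membrane preincubated 60 min at RT before ligand addition. Bound radioactivity read by filtration and scintillation counting; percent activity normalized to controls, EC50 from 4-parameter fit.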
# [2] = IFN-β secretion in THP1 cell culture, 5 h, compound at 30 μM, percent activation relative to 2′3′-cGAMP
# [3] = read-out: EC50 (nM), 3H-cGAMP filtration binding assay for HAQ STING
# [4] = EC50 (nM), 3H-cGAMP filtration binding assay for HAQ STING
Structure (SMILES),"% Effect at 30 μM relative to 2′3′-cGAMP [1, 2] [%]",EC50 (full-length HAQ STING; [3]) [nM],% Effect at 30 μM relative to 2′3′-cGAMP [1] [%],EC50 (full-length HAQ STING; [4]) [nM]
"CNc1ncnc2c1ncn2[C@@H]1O[C@@H]2COP(=O)(O)O[C@@H]3[C@H](O)[C@@H](COP(=O)(O)O[C@H]2[C@H]1O)O[C@H]3n1cnc2c(=O)[nH]c(N)nc21 [Example 31, 2-amino-9-{(5R,7R,8R,12aR,14R,15R,15aS,16R)-2,10,15,16-tetrahydroxy-14-[6-(methylamino)-9H-purin-9-yl]-2,10-dioxidooctahydro-12H-5,8-methanofuro [3,2-l][1,3,6,9,11,2,10]pentaoxadiphosphacyclotetradecin-7-yl}-1,9-dihydro-6H-purin-6-one]",100,94,,
"Nc1ncc2ncn([C@@H]3O[C@@H]4COP(=O)(O)O[C@@H]5[C@H](O)[C@@H](COP(=O)(O)O[C@H]4[C@H]3O)O[C@H]5n3cnc4c(=O)[nH]c(N)nc43)c2n1 [Example 59, 2-amino-9-[(5R,7R,8R,12aR,14R,15R,15aS,16R)-14-(2-amino-9H-purin-9-yl)-2,10,15,16-tetrahydroxy-2,10-dioxidooctahydro-12H-5,8-methanofuro[3,2-l][1,3,6,9,11,2,10]pentaoxadiphosphacyclotetradecin-7-yl]-1,9-dihydro-6H-purin-6-one]",76,11.8,,
"C[C@@H]1OP(=O)(O)O[C@@H]2C[C@@H](COP(=O)(O)O[C@H]3[C@@H](O)[C@H](n4cnc5c(N)ncnc54)O[C@H]31)O[C@H]2n1cnc2c(=O)[nH]c(N)nc21 [Example 18, 2-amino-9-[(5S,7R,8R,12S,12aS,14R,15R,15aS)-14-(6-amino-9H-purin-9-yl)-2,10,15-trihydroxy-12-methyl-2,10-dioxidooctahydro-12H-5,8-methanofuro[3,2-l][1,3,6,9,11,2,10]pentaoxadiphosphacyclotetradecin-7-yl]-1,9-dihydro-6H-purin-6-one]",74,53.9,,
"Nc1nc2c(ncn2[C@@H]2O[C@@H]3COP(=O)(S)O[C@H]4[C@H](F)[C@H](n5nnc6c(N)ncnc65)O[C@@H]4COP(=O)(S)O[C@@H]2C3)c(=O)[nH]1 (stereo partly drawn) [Example 138, 2-amino-9-[(5S,7R,8R,12aR,14R,15S,15aR)-14-(7-amino-3H-[1,2,3]triazolo[4,5-d]pyrimidin-3-yl)-15-fluoro-2,10-dioxido-2,10-disulfanyloctahydro-12H-5,8-methanofuro[3,2-l] [1,3,6,9,11,2,10]pentaoxadiphosphacyclotetra-decin-7-yl]-1,9-dihydro-6H-purin-6-one]",51,739,,
"Nc1ncnc2c1ncn2[C@@H]1O[C@@H]2COP(=O)(O)O[C@@H]3[C@H](O)[C@@H](COP(=O)(O)O[C@H]2[C@H]1O)O[C@H]3n1ncc2c(=O)[nH]cnc21 [Example 66, 1-[(5R,7R,8R,12aR,14R,15R,15aS,16R)-14-(6-amino-9H-purin-9-yl)-2,10,15,16-tetrahydroxy-2,10-dioxidooctahydro-12H-5,8-methanofuro[3,2-l][1,3,6,9,11,2,10]pentaoxadiphosphacyclotetradecin-7-yl]-1,5-dihydro-4H-pyrazolo[3,4-d]pyrimidin-4-one]",54,117,,
"Nc1nc2c(ncn2[C@@H]2O[C@@H]3COP(=O)(O)O[C@H]4C[C@H](n5cnc6c(=O)[nH]cnc65)O[C@@H]4COP(=O)(O)O[C@@H]2C3)c(=O)[nH]1 [Example 313, 2-amino-9-[(5S,7R,8R,12aR,14R,15aS)-2,10-dihydroxy-2,10-dioxido-14-(6-oxo-1,6-dihydro-9H-purin-9-yl)octahydro-12H-5,8-methanofuro[3,2-l] [1,3,6,9,11,2,10]pentaoxadiphosphacyclo-tetradecin-7-yl]-1,9-dihydro-6H-purin-6-one]",117,211,,
"Nc1nc2c(ncn2[C@@H]2O[C@@H]3CO[P@@](=O)(S)O[C@H]4C[C@H](n5cnc6c(=O)[nH]cnc65)O[C@@H]4CO[P@@](=O)(S)O[C@@H]2[C@@H]3F)c(=O)[nH]1 (single isomer, unassigned) [Example 307]",,,174,< 1
"Nc1ncnc2c1ncn2[C@@H]1O[C@@H]2COP(=O)(O)O[C@H]3C[C@H](n4cnc5c(=O)[nH]cnc54)O[C@@H]3COP(=O)(O)O[C@@H]1[C@@H]2O [Example 291, 9-[(5R,7R,8R,12aR,14R,15aS,16R)-7-(6-amino-9H-purin-9-yl)-2,10,16-trihydroxy-2,10-dioxidooctahydro-12H-5,8-methanofuro[3,2-l][1,3,6,9,11,2,10]pentaoxadiphosphacyclotetradecin-14-yl]-1,9-dihydro-6H-purin-6-one]",98,64.7,,
"Nc1nc2c(ncn2[C@@H]2O[C@@]34CO[C@H]3[C@H]2OP(=O)(O)OC[C@H]2O[C@@H](n3cnc5c(=O)[nH]cnc53)[C@H](O)[C@@H]2OP(=O)(O)OC4)c(=O)[nH]1 [Example 316, 2-amino-9-[(2aR,6aS,7R,8R,9aR,14R,14aS,15R)-5,7,12-trihydroxy-5,12-dioxido-8-(6-oxo-1,6-dihydro-9H-purin-9-yl)hexahydro-6aH,2a,14-(epoxymethano)furo [3,2-d]oxeto[2,3-k][1,3,7,9,2,8]tetraoxadiphosphacyclotridecin-15(2H,3H)-yl]-1,9-dihydro-6H-purin-6-one]",12,2320,,
"Nc1nc2c(ncn2[C@@H]2S[C@@H]3COP(=O)(O)O[C@H]4[C@@H](O)[C@H](n5cnc6c(=O)[nH]cnc65)O[C@@H]4COP(=O)(O)O[C@@H]2[C@@H]3O)c(=O)[nH]1 [Example 319, 2-amino-9-[(5R,7R,8R,12aR,14R,15R,15aS,16S)-2,10,15,16-tetrahydroxy-2,10-dioxido-14-(6-oxo-1,6-dihydro-9H-purin-9-yl)octahydro-12H-5,8-methanofuro[3,2-l][1,3,6,9,11,6,2,10]tetraoxathiadiphosphacyclotetradecin-7-yl]-1,9-dihydro-6H-purin-6-one]",143,7.3,,
"C[C@H]1OP(=O)(O)O[C@@H]2C[C@@H](COP(=O)(O)O[C@H]3[C@@H](O)[C@H](n4cnc5c(N)ncnc54)O[C@@H]31)O[C@H]2n1cnc2c(=O)[nH]c(N)nc21 [Example 16, 2-amino-9-[(5S,7R,8R,12R,12aR,14R,15R,15aS)-14-(6-amino-9H-purin-9-yl)-2,10,15-trihydroxy-12-methyl-2,10-dioxidooctahydro-12H-5,8-methanofuro[3,2-l][1,3,6,9,11,2,10]pentaoxadiphosphacyclotetradecin-7-yl]-1,9-dihydro-6H-purin-6-one]",57,12.4,,
"Nc1nc2c(ncn2[C@@H]2O[C@@H]3COP(O)(=S)O[C@H]4C[C@H](n5cnc6c(=O)[nH]cnc65)O[C@@H]4COP(O)(=S)O[C@@H]2[C@@H]3F)c(=O)[nH]1 (single isomer, unassigned) [Example 305]",,,50,326
"Nc1nc2c(ncn2[C@@H]2O[C@@H]3COP(O)(=S)O[C@H]4C[C@H](n5cnc6c(=O)[nH]cnc65)O[C@@H]4COP(O)(=S)O[C@@H]2[C@@H]3F)c(=O)[nH]1 (single isomer, unassigned) [Example 306]",,,153,3.6
